# Source: patent publication US8895520B2, “Method for treating a human patent suffering from Myeloid Neoplasias using 5-aminoimidazole-4-carboxamide” (Universite Nice Sophia Antipolis, priority 2011, dated 2014)
# pIC50: −log10 of the molar value.
# How the values were obtained:
# AZA-R SKM1 cells [1] = assay: Cathepsin B activity assay in AZA-R SKM1 cells; type: cell-based, human
# Method: (§1) For this experiment cells were incubated for increasing times with 1 μM AZA. Cell extracts were prepared and Cathepsin B activity determined in quadruplicatesusing Z-RR-AMC as substrates. […] In this experiment cells were incubated for 24 h with 1 μM Azacitidine or 1 mM ACA. Cell extracts were prepared and Cathepsin B activity was determined in quadruplicates using Z-RR-AMC as substrate. For these Cathepsin B assays, 10^6 cells/mL were incubated for different times at 37° C. with 1 μM Azacitine. After stimulation, cells were lysed for 30 min at 4° C. Cellular extracts were incubated in 96-well plates with […] (Cathepsin B) as substrate. This experiment was performed in quadruplicates and repeated at least three times.
# AZA-R SKM1 cells [2] = assay: Caspase 3 / caspase 9 activity assay in AZA-R SKM1 cells; type: cell-based, human
# Method: (§2) FIG. 1 illustrates AZA-induced apoptosis in AZA-SKM1 cells as assessed by caspase 3 assay. In this figure, cells were incubated for different times with 1 μM Azacitidine. Caspase activities were determined in quadruplicates using 0.2 mM Ac-DEVD-AMC as substrate.
# (§3) FIG. 2 illustrates AZA-induced apoptosis in AZA-SKM1 cells as assessed by caspase 9 assay. In this figure, cells were incubated for different times with 1 μM Azacitidine. Caspase activities were determined in quadruplicates using 0.2 mM Ac-LEHD-AMC as substrate.
# (§4) In this experiment, cells were incubated for 24 h with 1 μM Azacitidine or 1 mM ACA. Cell extracts were then prepared and caspase activities were determined in quadruplicates using 0.2 mM Ac-DEVD-AMC as substrate.
# (§5) For these caspase assays, 10^6 cells/mL were incubated for different times at 37° C. with 1 μM Azacitidine. After stimulation, cells were lysed for 30 min at 4° C. Cellular extracts were incubated in 96-well plates with either Ac-DEVD-AMC (caspase 3) or Ac-LEHD-AMC (caspase 9) as substrates. Each experiment was performed in quadruplicates and repeated at least three times.
# AZA-S SKM1 cells [3] = assay: Caspase 3 / caspase 9 activity assay in AZA-S SKM1 cells; type: cell-based, human
# Method: as §2, §3, §4, §5
# [4] = system: bone marrow cells of 8 AZA-resistant patients; assay: XTT cell metabolism assay on bone marrow cells of AZA-resistant patients; type: cell-based, human; details: 1 mM Acadesine
# Method: For this experiment, bone marrow cells of 8 AZA-resistant patients were treated with 1 μM Azacitidine or 1 mM Acadesine. Cell metabolism was assessed using the XTT assay. Results represent the mean+/−SEM of three independent experiments achieved in quadruplicates.
# (§6) In the following examples, bone marrow samples were collected from 15 patients treated by Azacitidine. […] The diagnosis of MDS or AML was based on standard WHO criteria (Vardiman et al., Blood 2009). Patients were to receive Azacitidine at the FDA/EMEA approved schedule (75 mg/m^2/d, 7 d/4 weeks). Patients having received one or more than one cycle of Azacitidine and who had bone marrow evaluation after at least four cycles, or who died or progressed before completion of four cycles were considered evaluable (the last two groups were considered as treatment failures). Responses were scored according to IWG 2006 criteria for MDS and to Cheson et al. (JCO 2003) for AML.
# (§7) Acadesine efficiency was next investigated on fifteen primary cell samples from MDS or AML patients treated or not by AZA. Samples from seven Azacitidine sensitive patients (FIG. 12) and eight samples from Azacitidine resistant patients were included in this experiment and analyzed by the XTT assay (FIG. 13). As previously described for AZA-R SKM1 cells, Acadesine was more efficient to kill cells from Azacitidine resistant patients.
# [5] = system: AZA-resistant patient bone marrow cells; assay: LC3 I / LC3 II western blot on AZA-resistant patient bone marrow cells; type: cell-based, human; details: one Azacitidine resistant patient, 1 mM Acadesine, 24 h
# Method: In this experiment LC3 I and LC3 II expression was assessed by Western-Blot on cell extracts prepared from AZA-resistant patient bone marrow cells incubated for 24 h with 1 mM Acadesine.
# as §7
# AZA-S SKM1 cells [6] = assay: XTT cell metabolism assay in AZA-S SKM1 cells; type: cell-based, human; details: for cell metabolism (XTT) / inhibitory effect on cell metabolism in presence of Z-VAD-fmk: 24 h; for inhibitory effect on cell metabolism in presence of Z-VAD-fmk: 50 μM Z-VAD-fmk
# Method: (§8) FIGS. 6 and 7 illustrate respectively the efficiency of acadesine in SKM1-S and SKM1-R cells. In FIG. 6, AZA-S SKM1 cells were incubated for 24 h with increased doses of ACA (acadesine). In FIG. 7, AZA-R SKM1 cells were incubated for 24 h with increased doses of ACA. Cell metabolism was then assessed by using the XTT assay in both assays. Results represent the mean+/−SEM of three independent experiments made in quadruplicates.
# FIGS. 10 and 11 illustrate the efficacy of acadesine in AZA-S and AZA-R cells. […] For this experiment, AZA-S SKM1 cells were incubated for 24 h with 1 μM Azacitidine or 1 mM Acadesine in either the presence or the absence of 50 μM Z-VAD-fmk. Cell metabolism was assessed using the XTT assay. Results represent the mean+/−SEM of three independent experiments achieved in quadruplicates. […] For this experiment, AZA-R SKM1 cells were incubated for 24 h with 1 μM Azacitidine or 1 mM Acadesine in either the presence or the absence of 50 μM Z-VAD-fmk. Cell metabolism was assessed using the XTT assay. Results represent the mean+/−SEM of three independent experiments achieved in quadruplicates.
# For the cell metabolism assessment, 15×10^3 cells were incubated in a 96-well plate for different times with various concentrations of Azacitidine in a final volume of 100 μL. After 16, 24 or 48 h, 50 μL of XTT reagent was added to each well. The absorbance of the formazan product, reflecting cell metabolism, was measured at […]. Each assay was performed in quadruplicate.
# The cell metabolism assessment was made in an identical manner as described in example 3.
# [7] = system: bone marrow cells of 7 AZA-sensitive patients; assay: XTT cell metabolism assay on bone marrow cells of AZA-sensitive patients; type: cell-based, human; details: bone marrow cells of AZA-sensitive patients (n=7), 1 mM Acadesine
# Method: For this experiment, bone marrow cells of 7 AZA-sensitive patients were treated with 1 μM Azacitidine or 1 mM Acadesine. Cell metabolism was assessed using the XTT assay. Results represent the mean+/−SEM of three independent experiments achieved in quadruplicates.
# as §6, §7
# AZA-R SKM1 cells [8] = assay: cells; type: cell-based; details: Homo sapiens
# Method: as §8
# FIGS. 10 and 11 illustrate the efficacy of acadesine in AZA-S and AZA-R cells. […] For this experiment, AZA-S SKM1 cells were incubated for 24 h with 1 μM Azacitidine or 1 mM Acadesine in either the presence or the absence of 50 μM Z-VAD-fmk. Cell metabolism was assessed using the XTT assay. Results represent the mean+/−SEM of three independent experiments achieved in quadruplicates. […] For this experiment, AZA-R SKM1 cells were incubated for 24 h with 1 μM Azacitidine or 1 mM Acadesine in either the presence or the absence of 50 μM Z-VAD-fmk. Cell metabolism was assessed using the XTT assay. Results represent the mean+/−SEM of three independent experiments achieved in quadruplicates. […]
# For the cell metabolism assessment, 15×10^3 cells were incubated in a 96-well plate for different times with various concentrations of Azacitidine in a final volume of 100 μL. […] The absorbance of the formazan product, reflecting cell metabolism, was measured at 490 nM. […]
# AZA-R SKM1 cells [9] = assay: Autophagy western blot (LC3-I/LC3-II, P-S6) in AZA-R SKM1 cells; type: cell-based, human; details: 1 μM AZA
# Method: (§9) FIG. 4 illustrates increased basal autophagy and decreased AZA-mediated autophagy in AZA-R cells. In this experiment, cells were incubated for increasing times with 1 μM AZA. LC3-I and LC3-II, S6 ribosomal protein (P-S6), and its phosphorylated form were visualized by western blot.
# (§10) For the Western Blot analysis, cells were first stimulated by 1 μM Azacitidine for the indicated times, then cells were harvested and lysed in buffer containing 1% Triton X-100 and supplemented with protease and phosphatase inhibitors (Roche Diagnostics) as previously described. Lysates were pelleted, and 50 μg of protein were analyzed by SDS-PAGE.
# AZA-S SKM1 cells [10] = assay: Cathepsin B activity assay in AZA-S SKM1 cells; type: cell-based, human; details: Azacitidine
# Method: as §1
# [11] = system: high-risk Myelodysplasic syndrome (MDS) or acute myeloid leukemia (AML) patients; details: cited from earlier work
# AZA-S SKM1 cells [12] = assay: Autophagy western blot (LC3-I/LC3-II, P-S6) in AZA-S SKM1 cells; type: cell-based, human; details: 1 μM AZA
# Method: as §9, §10
# AZA-R SKM1 cells [13] = assay: PARP cleavage by western blot in AZA-R SKM1 cells; type: cell-based, human; details: 1 μM Azacitidine, 16 h
# Method: as §10, with “In this experiment, PARP cleavage was assessed by western-blot on cell extracts prepared from AZA-S and AZA-R cells incubated for 16 h with 1 μM Azacitidine. For” for “For”
structure (smiles),measurement,setting,value
"NC(=O)c1ncn([C@@H]2O[C@H](CO)[C@@H](O)[C@H]2O)c1N [Acadesine, acadesine]",Cathepsin B activity,"AZA-R SKM1 cells [1]; 1 mM ACA, 24 h",increase of Cathepsin B activity
same,"apoptosis (caspase activity, Ac-DEVD-AMC)","AZA-R SKM1 cells [2]; 1 mM ACA, 24 h",does not induce apoptosis
same,"apoptosis (caspase activity, Ac-DEVD-AMC)","AZA-S SKM1 cells [3]; 1 mM ACA, 24 h",does not induce apoptosis
same,cell metabolism (XTT),[4],strongly inhibits cell metabolism
same,induction of autophagy (conversion of LC3-I into LC3-II),[5],induction of autophagy by Acadesine was confirmed
same,cell metabolism (XTT),AZA-S SKM1 cells [6]; 1 mM Acadesine,drastically inhibited cell metabolism
same,inhibitory effect on cell metabolism in presence of Z-VAD-fmk,AZA-S SKM1 cells [6]; 1 mM Acadesine,independently of caspases
same,pIC50,"AZA-S SKM1 cells [6]; Homo sapiens, SKM-1, 24 h, XTT assay, read-out: half-maximal inhibition of cell metabolism",3.60
same,cell metabolism (XTT),[7],inhibits cell metabolism
same,cytotoxicity at 1000 µM,"AZA-R SKM1 cells [8]; SKM-1, 24 h, read-out: reduction of cell viability",60%
same,pIC50,"AZA-R SKM1 cells [8]; SKM-1, AZA-R SKM1 cells, 24 h, XTT assay, read-out: half-maximal inhibition of cell metabolism",3.60
Nc1ncn([C@@H]2O[C@H](CO)[C@@H](O)[C@H]2O)c(=O)n1 [Azacitidine],Cathepsin B activity,"AZA-R SKM1 cells [1]; 1 μM AZA, increasing times",increased
same,caspase 3 activation (hydrolysis of Ac-DEVD-AMC),AZA-R SKM1 cells [2]; 1 μM Azacitidine,no caspase activities was induced
same,caspase 9 activation (hydrolysis of LEHD-AMC),AZA-R SKM1 cells [2]; 1 μM Azacitidine,no caspase activities was induced
same,caspase 3 activity (Ac-DEVD-AMC),"AZA-R SKM1 cells [2]; 1 μM Azacitidine, 24 h",no increase
same,ribosomal protein S6 phosphorylation (index of mTOR inhibition),AZA-R SKM1 cells [9],inhibition of ribosomal protein S6 phosphorylation
same,LC3-II accumulation (autophagy),AZA-R SKM1 cells [9]; increasing times,not further stimulated
same,caspase 3 activation (hydrolysis of Ac-DEVD-AMC),"AZA-S SKM1 cells [3]; 1 μM Azacitidine, 8-16 h",induced
same,caspase 9 activation (hydrolysis of LEHD-AMC),"AZA-S SKM1 cells [3]; 1 μM Azacitidine, 8-16 h",induced
same,caspase 3 activity (Ac-DEVD-AMC),"AZA-S SKM1 cells [3]; 1 μM Azacitidine, 24 h",induced caspase 3 activity
same,Cathepsin B activity,AZA-S SKM1 cells [10],induces
same,proportion of patients refractory,[11],approximately 40%
same,cell metabolism (XTT),AZA-S SKM1 cells [6]; 1 μM Azacitidine,efficiently reduced cell metabolism
same,inhibitory effect on cell metabolism in presence of Z-VAD-fmk,AZA-S SKM1 cells [6]; 1 μM Azacitidine,reverted by Z-VAD-fmk
same,ribosomal protein S6 phosphorylation (index of mTOR inhibition),AZA-S SKM1 cells [12],inhibition of ribosomal protein S6 phosphorylation
same,LC3-II accumulation (autophagy),AZA-S SKM1 cells [12]; increasing times,time-dependent accumulation of LC3-II
same,cleavage of PARP (western blot),AZA-R SKM1 cells [13],no AZA-mediated cleavage of PARP was detected
